From patent US20090221559A1 (priority 2005, published 2009)

Legend:
[1] = molecular target: T1, HCV NS5B polymerase (His-tagged, C-terminal 21 amino acid deleted NS5B, HC-J4) (Hepatitis C virus genotype 1b, UniProt O92972); assay: NS5b polymerase assay (biochemical RdRp assay, 3H-GTP incorporation, SPA beads); design: species or system HCV genotype 1b; conditions: NS5B Polymerase Assay IC50 (μM)
T1 construct: The cDNA encoding NS5B amino acid 1-570 (HC-J4, genotype 1b); His tag (His6, from pET-21b) (C); made in house; host or cells: E. coli BL21 (DE3)
Summary of the method: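 3H-GTP incorporation into newly made RNA was captured on SPA beads added in EDTA after 2 h at 25 °C. Compounds in DMSO met preformed enzyme–template complex (200 nM truncated His-NS5B, HC-J4 1b; biotin-oligo(rG13)/poly(rC)) for 15 min at RT, then 600 nM GTP, 5 mM MgCl2, Tris pH 7.5 started polymerization.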

[2] = tested on: HCV replicon RNA replication in Huh-7 luc/neo (Huh-Luc) cells; assay: HCV replicon assay (stable replicon cell reporter assay, luciferase read-out); type: cell-based, HCV type 1b; conditions: Hepatitis C virus, Huh-7, 72 h, read-out: Replicon Assay EC50 (μM), Huh-Luc cells, incubation of three days, luciferase activity
Summary of the method: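 Three-day compound exposure used Huh-Luc cells, which harbour an autonomously replicating genotype 1b NS3-NS5B replicon expressing luciferase and neo^R. Luciferase signal served as the replication read-out, and dose-response curves came from several concentrations per compound.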

T1 sequence (O92972 2417-3000, looked up, stated change not applied): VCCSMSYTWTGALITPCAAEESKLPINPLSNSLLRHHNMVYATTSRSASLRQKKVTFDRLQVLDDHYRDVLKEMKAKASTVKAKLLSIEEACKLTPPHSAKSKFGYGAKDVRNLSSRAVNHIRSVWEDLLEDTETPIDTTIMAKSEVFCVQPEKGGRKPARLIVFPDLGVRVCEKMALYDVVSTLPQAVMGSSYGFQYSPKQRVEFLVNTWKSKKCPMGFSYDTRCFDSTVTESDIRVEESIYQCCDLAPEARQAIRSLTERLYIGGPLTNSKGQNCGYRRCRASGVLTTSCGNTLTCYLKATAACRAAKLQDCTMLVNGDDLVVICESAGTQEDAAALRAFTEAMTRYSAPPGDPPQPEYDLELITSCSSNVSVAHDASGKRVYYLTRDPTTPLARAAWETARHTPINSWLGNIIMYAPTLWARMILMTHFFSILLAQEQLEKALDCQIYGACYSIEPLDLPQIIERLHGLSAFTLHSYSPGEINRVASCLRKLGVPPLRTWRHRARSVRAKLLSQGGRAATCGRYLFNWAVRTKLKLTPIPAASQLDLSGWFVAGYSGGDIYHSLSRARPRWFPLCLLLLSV

SMILES | IC50 [1] [µM] | EC50 [2] [µM]
O=C1CC(c2ccccc2)CC2=C1C(c1cccc(OCc3ccccc3)c1)Nc1ccccc1N2 (centres unmarked) [compound 373] | > 42.7 | 9.42
COC(=O)c1ccc(C2Nc3ccccc3NC3=C2C(=O)CC(c2ccccc2)C3)cc1 (centres unmarked) [compound 374] | > 42.7 | 10.1
COc1ccc(C2CC(=O)C3=C(C2)Nc2ccccc2NC3c2cc([N+](=O)[O-])ccc2Cl)cc1 (centres unmarked) [compound 375] | > 42.7 | 19.9
CCN(CC)c1ccc(C2CC(=O)C3=C(C2)Nc2ccccc2NC3c2ccccc2)cc1 (centres unmarked) [compound 376] | > 42.7 | 9.45
O=C1CC(c2ccc(Cl)cc2)CC2=C1C(c1ccc(C(F)(F)F)cc1)Nc1ccccc1N2 (centres unmarked) [compound 377] | > 42.7 | 4.46
CCOc1cc(C2Nc3ccccc3NC3=C2C(=O)CC(c2ccc(OC)cc2)C3)cc(Br)c1O (centres unmarked) [compound 378] | > 42.7 | 5.94
CCOc1cccc(C2Nc3ccccc3NC3=C2C(=O)CC(c2ccc(Cl)cc2)C3)c1 (centres unmarked) [compound 379] | > 42.7 | 6.79
O=C1CC(c2ccc(Cl)cc2)CC2=C1C(c1cccc(F)c1)Nc1ccccc1N2 (centres unmarked) [compound 380] | > 42.7 | 8.63
COc1ccc(C2CC(=O)C3=C(C2)Nc2ccccc2NC3c2ccccc2C)cc1 (centres unmarked) [compound 381] | > 42.7 | 4.77
CSc1ccc(C2Nc3ccccc3NC3=C2C(=O)CC(c2ccc(Cl)cc2)C3)cc1 (centres unmarked) [compound 382] | > 42.7 | 16.7
COc1ccc(C2CC(=O)C3=C(C2)Nc2ccccc2NC3c2ccccc2Cl)cc1 (centres unmarked) [compound 383] | > 42.7 | 17.3
COc1ccc(C2CC(=O)C3=C(C2)Nc2ccccc2NC3c2ccc(C)cc2)cc1 (centres unmarked) [compound 384] | 4.58 | 15.9
COc1ccc(C2CC(=O)C3=C(C2)Nc2ccccc2NC3c2ccc(OCc3ccccc3)c(OC)c2)cc1 (centres unmarked) [compound 385] | > 42.7 | 3.54
CCOc1cc(C2Nc3ccccc3NC3=C2C(=O)CC(c2ccc(OC)cc2)C3)ccc1OC(C)=O (centres unmarked) [compound 386] | > 42.7 | > 29.6
COc1ccc(C2CC(=O)C3=C(C2)Nc2ccccc2NC3c2ccc([N+](=O)[O-])cc2)cc1 (centres unmarked) [compound 387] | > 42.7 | 5.56
COc1ccc(C2CC(=O)C3=C(C2)Nc2ccccc2NC3c2ccc(OCc3ccccc3)cc2)cc1 (centres unmarked) [compound 388] | > 42.7 | 6.35
COc1ccc(C2CC(=O)C3=C(C2)Nc2ccccc2NC3c2ccc(Cl)c([N+](=O)[O-])c2)cc1 (centres unmarked) [compound 389] | > 42.7 | 5.58
COc1ccc(C2CC(=O)C3=C(C2)Nc2ccccc2NC3c2ccccc2Br)cc1 (centres unmarked) [compound 390] | > 42.7 | 9.07
COc1ccc(C2CC(=O)C3=C(C2)Nc2ccccc2NC3c2cccc(C)c2)cc1 (centres unmarked) [compound 391] | > 42.7 | 18.5
COc1ccc(C2CC(=O)C3=C(C2)Nc2ccccc2NC3c2cccc(O)c2)cc1 (centres unmarked) [compound 392] | > 42.7 | 22.6
CCOc1ccccc1C1Nc2ccccc2NC2=C1C(=O)CC(c1ccccc1)C2 (centres unmarked) [compound 393] | > 33.3 | 6.84
CCCOc1ccc(C2Nc3ccccc3NC3=C2C(=O)CC(c2ccc(OC)cc2)C3)cc1OC (centres unmarked) [compound 394] | > 42.7 | 14.1
Cc1ccc(C2Nc3ccccc3NC3=C2C(=O)CC(c2ccccc2Cl)C3)cc1 (centres unmarked) [compound 395] | > 42.7 | 9.91

SMILES | IC50 [1] [µM] | EC50 [2] [µM]
O=C1CC(c2ccccc2)CC2=C1C(c1ccccc1[N+](=O)[O-])Nc1ccccc1N2 (centres unmarked) [compound 396] | > 42.7 | 11.3
COc1ccc(C2CC(=O)C3=C(C2)Nc2ccccc2NC3c2cc(Br)c(O)c(OC)c2)cc1OC (centres unmarked) [compound 397] | > 42.7 | 6.13
COc1ccc(C2CC(=O)C3=C(C2)Nc2ccccc2NC3c2cc(OC)c(OC)cc2OC)cc1 (centres unmarked) [compound 398] | > 42.7 | 10.9
CCOc1cc(C2Nc3ccccc3NC3=C2C(=O)CC(c2ccc(OC)c(OC)c2)C3)cc(Br)c1O (centres unmarked) [compound 399] | > 42.7 | 19.4
COc1ccc(C2CC(=O)C3=C(C2)Nc2ccccc2NC3c2cc(OC)c(OC)cc2Br)cc1 (centres unmarked) [compound 400] | > 42.7 | 3.28
COc1ccc(C2CC(=O)C3=C(C2)Nc2ccccc2NC3c2cccc(OC)c2OC)cc1OC (centres unmarked) [compound 401] | > 42.7 | 2.88
COc1ccc(C2CC(=O)C3=C(C2)Nc2ccccc2NC3c2cc(Br)c(OC)c(OC)c2)cc1 (centres unmarked) [compound 402] | > 42.7 | 8.59
COc1ccc(C2CC(=O)C3=C(C2)Nc2ccccc2NC3c2cc(OC)c(OC)cc2OC)cc1OC (centres unmarked) [compound 403] | > 42.7 | 7.12
COc1ccc(C2CC(=O)C3=C(C2)Nc2ccccc2NC3c2cc(Br)ccc2OC)cc1OC (centres unmarked) [compound 404] | > 42.7 | 3.24
COc1ccc(C2CC(=O)C3=C(C2)Nc2ccccc2NC3c2ccc(OCc3ccccc3)c(OC)c2)cc1OC (centres unmarked) [compound 405] | > 42.7 | 5.34
CCOc1cc(C2Nc3ccccc3NC3=C2C(=O)CC(c2ccc(OC)cc2)C3)cc(Br)c1OC (centres unmarked) [compound 406] | > 42.7 | 7.29
O=C1CC(c2ccccc2)CC2=C1C(c1ccccc1C(F)(F)F)Nc1ccccc1N2 (centres unmarked) [compound 407] | > 33.3 | 15.6
Cc1ccc(C2CC(=O)C3=C(C2)Nc2ccccc2NC3c2ccc(C)cc2)cc1 (centres unmarked) [compound 408] | > 33.3 | 14.2
Cc1ccc(C2Nc3ccccc3NC3=C2C(=O)CC(c2ccc(Cl)cc2)C3)cc1 (centres unmarked) [compound 409] | > 33.3 | 14.9
CCOc1cccc(C2Nc3ccccc3NC3=C2C(=O)CC(c2ccccc2)C3)c1 (centres unmarked) [compound 410] | > 33.3 | 22.6
Cc1ccc(C2CC(=O)C3=C(C2)Nc2ccccc2NC3c2ccccc2Cl)cc1 (centres unmarked) [compound 411] | > 33.3 | 17.9
Cc1ccc(C2CC(=O)C3=C(C2)Nc2ccccc2NC3c2ccccc2F)cc1 (centres unmarked) [compound 412] | > 33.3 | 16.7
O=C1CC(c2ccco2)CC2=C1C(c1ccc(Cl)cc1)Nc1ccccc1N2 (centres unmarked) [compound 413] | > 33.3 | 12
Cc1ccc(C2CC(=O)C3=C(C2)Nc2ccccc2NC3c2ccccc2)cc1 (centres unmarked) [compound 414] | > 33.3 | 13.6
COc1ccc(C2CC(=O)C3=C(C2)Nc2ccccc2NC3c2ccc(Cl)cc2)cc1OC (centres unmarked) [compound 415] | > 33.3 | 14.7
COc1ccc(C2CC(=O)C3=C(C2)Nc2ccccc2NC3c2ccc(Cl)cc2)cc1 (centres unmarked) [compound 416] | > 33.3 | 11.2
O=C1CCCC2=C1C(c1ccc(Cl)cc1Cl)Nc1ccccc1N2 (centres unmarked) [compound 421] | > 133 | 51.9
CC1CC(=O)C2=C(C1)Nc1ccccc1NC2c1ccc(Cl)cc1Cl (centres unmarked) [compound 422, 11-(2,4-dichlorophenyl)-3-methyl-2,3,4,5,10,11-hexahydro-1H-dibenzo[b,e][1,4]diazepin-1-one] | > 133 | > 100
